Data on one compound can be found in US20240327493A1 (GEORGE MASON UNIVERSITY, priority 2023, published 2024).

“Also recorded” adds a separate entry of the source.

The experiment deals with human PBMCs co-cultured with OVCAR8 cells. In words: Co-culture of OVCAR8 cells and stimulated human PBMCs, 1:10 OVCAR8:PBMC ratio. The experiment is classed as cell-based. The conditions noted are these: for Immunosuppressive effect (reduction in TNFα/cytokines) compared with controls rPD-L1 and MN_Null: 1:10 OVCAR8:PBMC co-culture, FIG. 10D; for TNFα levels / IL-2 levels: 1:10 OVCAR8:PBMC, 24 hours, vs untreated co-culture control; for TNFα levels: ELISA, FIG. 10C; for IL-2 levels: FIG. 10B. On the procedure:
For this model, PBMCs and cancer cells were both stimulated prior to co-culture to promote expression of PD-1 and PD-L1, respectively.
OVCAR8 cells, generously provided by the Gottesman Lab (National Institutes of Health, Bethesda, MD, USA), and MDA-MB-231 cells (American Type Culture Collection, Rockville, MD, USA) were cultured in Gibco RPMI 1640 media (ThermoFisher Scientific, Cat. No. 11-875-093) supplemented with 10% Gibco fetal bovine serum (ThermoFisher Scientific, Cat. No. 10437028), and 1% penicillin/streptomycin (10,000 U/mL pen, 10 mg/mL strcp) from MilliporeSigma (Burlington, MA, USA, Cat. No. P4333). Cells were cultured at 37° C. and 5% CO2. Passage number was kept below 3 for co-culture assay. Human peripheral blood mononuclear cells were purchased frozen from […] PBMCs were thawed according to manufacturer's instructions one day before co-culture and cultured in the same media and conditions as cancer cell lines.
The next day, cells were stimulated with 100 ng/mL IFNγ and two vials of human PBMCs were thawed. On Day 3, concentrations of PBMCs and OVCAR8 cells (harvested from a control well) were measured using the QuadCount Automated Cell Counter. The concentration of PBMCs required for a 1:10 OVCAR8:PBMC ratio was calculated from the OVCAR8 concentration. PBMCs were plated on a separate 24-well plate (1 mL/well) and stimulated with 5 μg/mL of anti-CD3 and 5 μg/mL of anti-CD28 for 30 minutes before drug treatment. […] After 30 minutes, media was removed from OVCAR8 wells without treatment, and replaced with 1 mL of treated PBMCs. After 24 hours, the supernatants were collected from each well, and centrifuged at 10,000×g for 5 minutes to remove any remaining cells.
Briefly, samples from co-culture experiments with excess OVCAR8 ratios were diluted 1:10 in assay buffer, and samples from co-culture experiments with excess PBMC ratios were diluted 1:5 in assay buffer. Next, 10 μL of the diluted samples were mixed with 10 μL of an IL-2 antibody-oligonucleotide conjugate mixture and added to a 96-well working plate. Samples with excess OVCAR8 ratios were allowed to incubate overnight at 4° C. Samples with excess PBMCs were allowed to incubate for 1 hour at room temperature. Next, 80 μL of qPCR reaction mixture containing master mix and DNA ligase was added to each well. The plate was centrifuged at 2,500×g for 2 minutes. Samples were then added in triplicate (20 μL/well) to a 96-well PCR plate (ThermoFisher Scientific). PCR was run according to manufacturer's instructions using the QuantStudio 7 Pro Real-Time PCR System equipped with a 96-well, 0.2 mL block from ThermoFisher Scientific.
Remaining samples from experiments with excess PBMC ratios were analyzed using TNFα (Cat. No. 430204) ELISA MAX Deluxe Sets (BioLegend, San Diego, CA, USA) according to manufacturer's instructions. Briefly, 96-well Nunc™ MaxiSorp™ ELISA Plates (BioLegend, Cat. No. 423501) were coated with capture antibodies for TNFα and incubated overnight at 4° C. The next day, the plate was washed 4× with 1×PBS+0.05% Tween-20 (PBS-T). To block non-specific binding, 200 μL of assay dilutant buffer was added to each well and the plate was incubated at room temperature for 1 hour on a shaker. The plate was washed as before, and 100 μL of the samples or standards were added to each well in triplicate and incubated at room temperature for 2 hours on a shaker. The plate was washed 4× and 100 μL of detection antibody for TNFα was added to each well, and the plate was incubated at room temperature for 1 hour on a shaker. The plate was washed 4× and 100 μL of Avidin-HRP was added to each well, and the plate was incubated at room temperature for 30 minutes on a shaker.

`CC[C@H](C)[C@@H]1NC(=O)[C@H](CCSC)NC(=O)[C@H](C)NC(=O)[C@H](CCCNC(=N)N)NC(=O)[C@@H](N)CSSC[C@@H](C(=O)O)NC(=O)[C@H]([C@@H](C)CC)NC(=O)[C@H](CCCNC(=N)N)N(C)C(=O)[C@H](CCCCN)NC(=O)[C@H](Cc2ccc(O)cc2)NC(=O)[C@H](CC(=O)O)NC(=O)[C@H](C)NC(=O)CNC(=O)CNC(=O)[C@H](Cc2ccc(O)cc2)NC(=O)[C@H](CO)NC1=O` [SEQ ID NO. 5, CRAMISYGGADYKXIC]: for the setting “listed as MN 1.4”, the “Immunosuppressive effect (reduction in TNFα/cytokines) compared with controls rPD-L1 and MN_Null” value is “less potent than recombinant PD-L1”; the TNFα levels entry is listed as “reduced in a dose-dependent manner”; the IL-2 levels result was “reduced in a dose-dependent manner”. For the same compound, for the setting “listed as MN1.4”, the “Immunosuppressive effect (reduction in TNFα/cytokines) compared with controls rPD-L1 and MN_Null” value was “not a significant difference in cytokine levels between the MN1.4 and rPD-L1 treatment groups; also recorded: recapitulated the biological effects of full-length PD-L1; also recorded: the same reduction in TNFα as rPD-L1”; the TNFα levels result is “same pattern of T cell suppression was observed; also recorded: significantly decreased; also recorded: shown to decrease IL-2 and TNFα secretion; also recorded: A reduction in this cytokine was also observed”; the IL-2 levels entry was “same pattern of T cell suppression was observed; also recorded: significantly decreased; also recorded: shown to decrease IL-2 and TNFα secretion; also recorded: A dose-dependent reduction in IL-2 was observed”.
